# Results from patent publication US20200164060A1, “HERPES SIMPLEX VIRUS VACCINE EPITOPES SP[…] TISSUE RESIDENT MEMORY T CELLS” (priority 2017, published 2020).
# Test system: biopsy-derived HSV-2-specific CD4 TRM
# Assay: single peptide test with biopsy-derived HSV-2-specific CD4 TRM, IFN-γ secretion
# Assay type: cell-based, human
# Conditions: peptide at 1 μg/ml; HLA-expressing cells as antigen presenting cells; media control gave no response
# From the text: FIG. 14. CD4 epitopes: peptide pools→singles. For this example, biopsy-derived cells recognize Cos7 co-transfected with the combination of a subject HLA molecule and HSV-2 UL19 gene. A rectangular matrix of peptides covering UL19 was created and row and column pools were made as indicated on the X axis of the top graph. Only one row pool and one column pool gave a positive proliferative response using the assay described in FIG. 13. The peptide at the intersection of the positive row and column pools, UL19 305-319 (SEQ ID NO: 14), was tested at 1 μg/ml using HLA-expressing cells as antigen presenting cells and biopsy-derived HSV-2-specific CD4 TRM as responder cells. The readout was IFN-γ secretion, as shown in the bottom graphs.
# The technology used to determine the fine peptide specificity of biopsy-derived CD4 T cells that recognize HSV-2 has been described in Johnston, et al., Journal of Virology 88, 4921-4931 (2014). In brief, every HSV-2 was expressed. […] T cell activation was detected by proliferation or IFN-γ secretion assays. Once the identity of reactive HSV-2 proteins were determined, peptides from within that protein were tested in repeat assays as described in Johnston, et al., Journal of Virology 88, 4921-4931, (2014). In some cases, dose-response assays were conducted as described in Jing, et al., Journal of Immunology 196, 2205-2218, (2016). […]
sequence,measurement,value
TYGEMVLNGANLVTA [SEQ ID NO: 14],IFN-γ response from the biopsy cells,elicited an IFN-γ response
